Source: paper PMC12669672, “Structural insights into selective and dual antagonism of EP2 and EP4 prostaglandin receptors” (The EMBO Journal, 2025)
pIC50, pKd: −log10 of the molar value. Values joined by “and” are separate entries in the source; they are usually repeats but may differ in a detail not shown here. Equal values may be shown once. Read-outs that look alike come from different tables or passages of the source.

Experiments:
EP2-L301I = biological target: T1, EP2-L301I (Homo sapiens, UniProt P43116, L301I); assay: GloSensor cAMP assay, antagonism of PGE2-induced cAMP, chimeric studies; format: cell-based; conditions: single experiments 1st-3rd
T1 construct: The full-length EP2 or EP4 was cloned into the pcDNA3.1 vector; FLAG (N); expressed in transfected cells; host or cells: AD293 cells
Method in brief: (§1)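 Read-out is GloSensor luminescence from AD293 cells co-expressing FLAG-tagged EP2 variant and GloSensor22F biosensor, transfected at a 1:1 plasmid ratio. Cells were plated at 4000 per well in CO2-independent medium containing 2% cAMP reagent, incubated 1 h at 37 °C, then read.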

EP4 = biological target: EP4; set-up: method as in Ganesh et al, 2013; conditions: antagonism towards EP4; ref Ganesh et al, 2013; cited from earlier work
EP4 I317A = biological target: T2, EP4 I317A (Homo sapiens, UniProt P35408, I317A); assay: GloSensor cAMP assay, antagonism of PGE2-induced cAMP; format: cell-based; conditions: for cAMP activity (∆pIC50 from EP4 WT): TG6-129, I317A
T2 construct: The full-length EP2 or EP4 was cloned into the pcDNA3.1 vector; FLAG (N); expressed in transfected cells; host or cells: AD293 cells

EP2 E23A = biological target: T3, EP2 E23A (Homo sapiens, UniProt P43116, E23A); assay: as above; format: cell-based
T3 construct: The full-length EP2 or EP4 was cloned into the pcDNA3.1 vector; FLAG (N); expressed in transfected cells; host or cells: AD293 cells
Method in brief: as §1

EP2 S28A = biological target: T4, EP2 S28A (Homo sapiens, UniProt P43116, S28A); assay: as above; format: cell-based; conditions: for cAMP activity (∆pIC50 from EP2 WT): TG6-129, S28A
T4 construct: The full-length EP2 or EP4 was cloned into the pcDNA3.1 vector; FLAG (N); expressed in transfected cells; host or cells: AD293 cells
Method in brief: as §1

EP2 = biological target: EP2; set-up: method as in Ganesh et al, 2013; conditions: antagonism towards EP2; ref Ganesh et al, 2013; cited from earlier work
[1] = biological target: T5, constitutively active EP4 I317A (Homo sapiens, UniProt P35408, I317A); assay: GloSensor cAMP assay, inhibition of constitutive activity; format: cell-based
T5 construct: The full-length EP2 or EP4 was cloned into the pcDNA3.1 vector (Invitrogen), incorporating an N-terminal FLAG tag; expressed in transfected cells; host or cells: AD293

[2] = biological target: T6, constitutively active EP2 S28A (Homo sapiens, UniProt P43116, S28A); assay: as above; format: cell-based
T6 construct: The full-length EP2 or EP4 was cloned into the pcDNA3.1 vector; FLAG (N); expressed in transfected cells; host or cells: AD293 cells
Method in brief: as §1

[3] = biological target: T7, constitutively active EP2 E23A (Homo sapiens, UniProt P43116, E23A); assay: as above; format: cell-based
T7 construct: The full-length EP2 or EP4 was cloned into the pcDNA3.1 vector; FLAG (N); expressed in transfected cells; host or cells: AD293 cells
Method in brief: as §1

[4] = 1 h, TG6-129 log([M]) -12, read-out: % cAMP activity (normalized to WT)
[5] = no PGE2, pIC50 mutant - pIC50 WT, mean

T1 sequence (P43116 whole entry L301I): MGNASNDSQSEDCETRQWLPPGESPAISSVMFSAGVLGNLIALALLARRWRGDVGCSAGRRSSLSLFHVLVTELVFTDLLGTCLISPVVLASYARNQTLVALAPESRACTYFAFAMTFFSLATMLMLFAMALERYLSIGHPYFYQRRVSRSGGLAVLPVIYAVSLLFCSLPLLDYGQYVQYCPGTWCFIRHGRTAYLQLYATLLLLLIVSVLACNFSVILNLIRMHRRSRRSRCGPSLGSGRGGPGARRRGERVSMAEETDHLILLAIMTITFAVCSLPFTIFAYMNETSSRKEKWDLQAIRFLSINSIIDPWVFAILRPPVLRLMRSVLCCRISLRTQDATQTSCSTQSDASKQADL
T6 sequence (P43116 whole entry S28A): as the sequence (P43116 whole entry L301I) above, with S28A, I301L counted along it
T4 sequence (P43116 whole entry S28A): as the sequence (P43116 whole entry L301I) above, with S28A, I301L counted along it
T3 sequence (P43116 whole entry E23A): as the sequence (P43116 whole entry L301I) above, with E23A, I301L counted along it
T7 sequence (P43116 whole entry E23A): as the sequence (P43116 whole entry L301I) above, with E23A, I301L counted along it
T2 sequence (P35408 whole entry I317A): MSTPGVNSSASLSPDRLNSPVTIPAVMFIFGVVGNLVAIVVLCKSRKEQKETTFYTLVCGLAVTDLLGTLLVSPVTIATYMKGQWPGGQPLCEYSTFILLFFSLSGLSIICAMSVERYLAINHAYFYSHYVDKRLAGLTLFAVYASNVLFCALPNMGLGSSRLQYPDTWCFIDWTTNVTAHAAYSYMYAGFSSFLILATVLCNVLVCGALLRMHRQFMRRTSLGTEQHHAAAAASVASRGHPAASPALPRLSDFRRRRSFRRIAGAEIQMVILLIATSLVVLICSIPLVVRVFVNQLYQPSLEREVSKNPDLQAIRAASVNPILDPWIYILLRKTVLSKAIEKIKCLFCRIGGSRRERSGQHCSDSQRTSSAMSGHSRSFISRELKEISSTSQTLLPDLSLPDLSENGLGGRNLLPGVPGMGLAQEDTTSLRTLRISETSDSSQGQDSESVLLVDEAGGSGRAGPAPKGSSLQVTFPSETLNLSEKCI
T5 sequence (P35408 whole entry I317A): as above

`CCc1nnc(NS(=O)(=O)c2ccc(NC(=S)NC(=O)/C=C/c3ccc(F)cc3)cc2)s1` [TG6-129] showed a remaining activity at 10 µM (EP2-L301I; 1 h, ligand log([M]) -5, Fig. S7B, read-out: % cAMP activity (normalized to WT)) of 16.7%, a remaining activity at 1 µM (EP2-L301I; 1 h, ligand log([M]) -6, Fig. S7B, read-out: % cAMP activity (normalized to WT)) of 17.9% and a remaining activity at 0.1 µM (EP2-L301I; 1 h, ligand log([M]) -7, Fig. S7B, read-out: % cAMP activity (normalized to WT)) of 74.8%. It also gave a remaining activity at 0.0001 µM (EP2-L301I; 1 h, ligand log([M]) -10, Fig. S7B, read-out: % cAMP activity (normalized to WT)) of 111%, a remaining activity at 10 pM (EP2-L301I; 1 h, ligand log([M]) -11, Fig. S7B, read-out: % cAMP activity (normalized to WT)) of 123% and a remaining activity at 1 pM (EP2-L301I; 1 h, ligand log([M]) -12, Fig. S7B, read-out: % cAMP activity (normalized to WT)) of 120%. The “cAMP activity (∆pIC50 from EP2 WT)” value (EP2-L301I; Appendix Fig. S7A) was -0.046 and -0.334 and -0.171, the pKd (EP4) was 5.41 and the pIC50 (EP4 I317A) was 4.97. It also gave a remaining activity at 100 µM (EP4 I317A; 1 h, TG6-129 log([M]) -4.00, read-out: % cAMP activity (normalized to WT)) of 16.3%, a remaining activity at […] (EP4 I317A; 1 h, TG6-129 log([M]) -4.70, read-out: % cAMP activity (normalized to WT)) of 19.5% and a remaining activity at […] (EP4 I317A; 1 h, TG6-129 log([M]) -5.40, read-out: % cAMP activity (normalized to WT)) of 47.7%. The remaining activity at […] (EP4 I317A; 1 h, TG6-129 log([M]) -6.10, read-out: % cAMP activity (normalized to WT)) was 54.4%, the remaining activity at 0.1585 µM (EP4 I317A; 1 h, TG6-129 log([M]) -6.80, read-out: % cAMP activity (normalized to WT)) was 59.7% and the remaining activity at 0.03236 µM (EP4 I317A; 1 h, TG6-129 log([M]) -7.49, read-out: % cAMP activity (normalized to WT)) was 57.3%. For the same compound, the remaining activity at 0.006457 µM (EP4 I317A; 1 h, TG6-129 log([M]) -8.19, read-out: % cAMP activity (normalized to WT)) was 60.6%, the remaining activity at 0.001288 µM (EP4 I317A; 1 h, TG6-129 log([M]) -8.89, read-out: % cAMP activity (normalized to WT)) was 53.5% and the “cAMP activity (∆pIC50 from EP4 WT)” value (EP4 I317A; Mean) was 0.074. The “cAMP activity (∆pIC50 from EP4 WT)” value (EP4 I317A; single experiments 1st-3rd) was 0.047 and -0.037 and 0.211, the pIC50 (EP2 E23A) was 7.69 and the remaining activity at 1 pM (EP2 E23A; [4]) was 74.1%. The “cAMP activity (∆pIC50 from EP2 WT)” value (EP2 E23A; TG6-129, E23A, Mean) was 0.563, the pIC50 (EP2 S28A) was 7.44 and the remaining activity at 10 pM (EP2 S28A; 1 h, TG6-129 log([M]) -11, read-out: % cAMP activity (normalized to WT)) was 109%. The remaining activity at 1 pM (EP2 S28A; [4]) was 106%, the “cAMP activity (∆pIC50 from EP2 WT)” value (EP2 S28A; Mean) was 0.282 and the “cAMP activity (∆pIC50 from EP2 WT)” value (EP2 S28A; single experiments 1st-3rd) was 0.159 and 0.319 and 0.367. For the same compound, the pKd (EP2) was 8.06, the pIC50 [1] was 5.45 and the remaining activity at 100 µM ([1]; 1 h, TG6-129 log([M]) -4.00, EP4-I317A, read-out: % cAMP activity (normalized to WT)) was 6.11%. The remaining activity at […] ([1]; 1 h, TG6-129 log([M]) -4.70, EP4-I317A, read-out: % cAMP activity (normalized to WT)) was 11.7%, the remaining activity at […] ([1]; 1 h, TG6-129 log([M]) -5.40, EP4-I317A, read-out: % cAMP activity (normalized to WT)) was 33.6% and the remaining activity at […] ([1]; 1 h, TG6-129 log([M]) -6.10, EP4-I317A, read-out: % cAMP activity (normalized to WT)) was 68.9%. It also gave a remaining activity at 0.1585 µM ([1]; 1 h, TG6-129 log([M]) -6.80, EP4-I317A, read-out: % cAMP activity (normalized to WT)) of 80.8%, a remaining activity at 0.03236 µM ([1]; 1 h, TG6-129 log([M]) -7.49, EP4-I317A, read-out: % cAMP activity (normalized to WT)) of 80.3% and a remaining activity at 0.006457 µM ([1]; 1 h, TG6-129 log([M]) -8.19, EP4-I317A, read-out: % cAMP activity (normalized to WT)) of 83%. The remaining activity at 0.001288 µM ([1]; 1 h, TG6-129 log([M]) -8.89, EP4-I317A, read-out: % cAMP activity (normalized to WT)) was 79.7%, the “TG6-129 cAMP activity (∆pIC50 from EP4 WT), Mean” value ([1]; I317A, Mean) was 0.256 and the ΔpIC50 [1, 5] was 0.26 ± 0.11. It also gave a pIC50 [2] of 7.41, a remaining activity at 10 µM ([2]; 1 h, TG6-129 log([M]) -5, EP2-S28A, read-out: % cAMP activity (normalized to WT)) of 8.3% and a remaining activity at 1 µM ([2]; 1 h, TG6-129 log([M]) -6, EP2-S28A, read-out: % cAMP activity (normalized to WT)) of 8.69%. For the same compound, the remaining activity at 0.001 µM ([2]; 1 h, TG6-129 log([M]) -9, EP2-S28A, read-out: % cAMP activity (normalized to WT)) was 255%, the “TG6-129 cAMP activity (∆pIC50 from EP2 WT), Mean” value ([2]; S28A, Mean) was 0.422 and the “TG6-129 cAMP activity (∆pIC50 from EP2 WT)” value ([2]; S28A, single experiments 1st-3rd) was 0.401 and 0.405 and 0.460. It also gave a ΔpIC50 [2, 5] of 0.42 ± 0.02, a pIC50 [3] of 7.50 and a remaining activity at 10 µM ([3]; 1 h, TG6-129 log([M]) -5, EP2-E23A, read-out: % cAMP activity (normalized to WT)) of 5.62%. It also gave a remaining activity at 1 µM ([3]; 1 h, TG6-129 log([M]) -6, EP2-E23A, read-out: % cAMP activity (normalized to WT)) of 4.15%, a remaining activity at 0.1 µM ([3]; 1 h, TG6-129 log([M]) -7, EP2-E23A, read-out: % cAMP activity (normalized to WT)) of 17.9% and a remaining activity at 0.001 µM ([3]; 1 h, TG6-129 log([M]) -9, EP2-E23A, read-out: % cAMP activity (normalized to WT)) of 93.8%. The remaining activity at 0.0001 µM ([3]; 1 h, TG6-129 log([M]) -10, EP2-E23A, read-out: % cAMP activity (normalized to WT)) was 108%, the remaining activity at 10 pM ([3]; 1 h, TG6-129 log([M]) -11, EP2-E23A, read-out: % cAMP activity (normalized to WT)) was 111% and the remaining activity at 1 pM ([3]; 1 h, TG6-129 log([M]) -12, EP2-E23A, read-out: % cAMP activity (normalized to WT)) was 98%. For the same compound, the “TG6-129 cAMP activity (∆pIC50 from EP2 WT), Mean” value ([3]; E23A, Mean) was 0.363, the “TG6-129 cAMP activity (∆pIC50 from EP2 WT)” value ([3]; E23A, single experiments 1st-3rd) was 0.381 and 0.341 and 0.367 and the ΔpIC50 [3, 5] was 0.36 ± 0.01.
